These are literature values, as cited in patent publication US7317103B2, “Imaging agents for diagnosis of Parkinson's disease” (Molecular Insight Pharmaceuticals, Inc., priority 2000, dated 2008).

Each structure is given as a SMILES string.

The conditions of the data set: Tc-99m labeled tropane analog, Kung et al.

Turning to `CN1[C@H]2CC[C@@H]1[C@@H](CN(CC[S-])CC[N-]CC[S-])[C@@H](c1ccc(Cl)cc1)C2.[O]=[99Tc+4]` [TRODAT], the absolute brain uptake result was “very low”.
